Measurements published in US10611759B2, “Glutaminase inhibitors” (Rhizen Pharmaceuticals SA, priority 2014, dated 2020).
Where two headings read alike, the source gives them in different places.

Biological target: T1, Glutaminase(Brain) (Mus musculus, UniProt D3Z7P3)
T1 sequence (D3Z7P3 55-674): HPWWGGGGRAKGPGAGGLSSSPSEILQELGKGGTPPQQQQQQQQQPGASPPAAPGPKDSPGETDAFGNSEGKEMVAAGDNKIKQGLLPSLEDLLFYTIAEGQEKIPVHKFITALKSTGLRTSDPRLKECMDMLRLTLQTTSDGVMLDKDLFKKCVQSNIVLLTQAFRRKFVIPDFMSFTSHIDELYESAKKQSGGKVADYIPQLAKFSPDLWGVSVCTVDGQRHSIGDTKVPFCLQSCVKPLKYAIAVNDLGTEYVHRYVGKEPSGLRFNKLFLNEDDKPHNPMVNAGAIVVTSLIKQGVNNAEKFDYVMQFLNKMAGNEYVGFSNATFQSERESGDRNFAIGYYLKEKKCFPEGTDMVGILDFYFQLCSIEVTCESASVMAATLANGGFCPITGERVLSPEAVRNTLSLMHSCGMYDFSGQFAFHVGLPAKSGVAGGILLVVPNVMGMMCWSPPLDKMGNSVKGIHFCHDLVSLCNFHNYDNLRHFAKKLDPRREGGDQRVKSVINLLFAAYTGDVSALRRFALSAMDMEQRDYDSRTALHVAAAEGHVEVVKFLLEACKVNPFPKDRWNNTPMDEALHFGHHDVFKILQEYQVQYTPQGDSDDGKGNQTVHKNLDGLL
Assay: Glutaminase enzyme activity using glutaminase enzyme from mice brain/kidney homogenate (Nessler's reagent, ammonia)
Assay type: biochemical
Settings: for inhibition at 0.1 µM: read-out: Glutaminase(Brain) activity % inhibition 0.1 μM; for inhibition at 1 µM: read-out: Glutaminase(Brain) activity % inhibition @1 μM
Procedure: Assay 3: Determination of Glutaminase Enzyme Activity Using Glutaminase Enzyme from Mice Brain/Kidney
Step 1: Preparation of Tissue Homogenates:
Male Balb/c mice were administered 0.28 M ammonium chloride in drinking water for 7 days. The animals were sacrificed and brain/kidney organs collected on dry ice. […] The tissue was homogenized and supernatants were stored at −80° C. until the enzyme assay was performed.
Aim: Compounds were assessed for their ability to inhibit the enzymatic activity of L-glutaminase present in mice brain/kidney homogenate.
Protocol: The assay was performed using a colorimetric method using Nessler's Reagent by quantifying the amount of ammonia formed as a by product during the enzymatic conversion of L-glutamine to glutamate. In the routine assay, 16 μl of tissue homogenate is added to 33 μl of Tris-Hcl phosphate buffer (pH 8) along with 1 μl of DMSO/test compound containing the desired final concentration and vortexed briefly. 50 μl of 20 mM L-glutamine Tris buffer is added to start the reaction and incubated for 15 minutes at 37° C. The ammonia formed is detected by adding 20 μl of reaction mixture to cold water in a 96 well plate followed by 20 μl of Nessler's reagent. The colour developed is measured at 450 nm. Data Analysis: Activity of the test compound is reported as % inhibition and the data is analyzed using Graphpad Prism (Graphpad software; San Diego Calif.) for IC50 determination.

| SMILES | inhibition at 0.1 µM (0.1 μM, mice brain homogenate) | inhibition at 1 µM (1 μM, mice brain homogenate) | inhibition at 0.1 µM | inhibition at 1 µM |
| --- | --- | --- | --- | --- |
| O=C(Cc1cccc(OC(F)(F)F)c1)Nc1ccc(N2CCCC(c3nnc(NC(=O)Cc4ccccn4)s3)C2)cn1 (racemic) [Example 2, (RS)-2-(Pyridin-2-yl)-N-(5-(1-(6-(2-(3-(trifluoromethoxy)phenyl)acetamido)pyridin-3-yl)piperidin-3-yl)-1,3,4-thiadiazol-2-yl)acetamide] | < 25% | 25 to 50% | – | – |
| O=C(Cc1cccc(OC(F)(F)F)c1)Nc1ccc(N2CCCC(c3nnc(NC(=O)Cc4ccccn4)s3)C2)cn1 (single isomer, unassigned) [Example 2A, (R) or (S) 2-(Pyridin-2-yl)-N-(5-(1-(6-(2-(3-(trifluoromethoxy)phenyl)acetamido)pyridin-3-yl)piperidin-3-yl)-1,3,4-thiadiazol-2-yl)acetamide] | < 25% | < 25% | – | – |
| O=C(Cc1cccc(OC(F)(F)F)c1)Nc1ccc(N2CCCC(c3nnc(NC(=O)Cc4cccnc4)s3)C2)cn1 (single isomer, unassigned) [Example 3B, (S) or (R) 2-(Pyridin-3-yl)-N-(5-(1-(6-(2-(3-(trifluoromethoxy)phenyl)acetamido)pyridine-3-yl)piperidin-3-yl)-1,3,4-thiadiazol-2-yl)acetamide] | < 25% | < 25% | – | – |
| O=C(Cc1cccc(OC(F)(F)F)c1)Nc1ccc(N2CCC(c3nnc(NC(=O)Cc4ccccn4)s3)CC2)cn1 [Example 1, 2-(Pyridin-2-yl)-N-(5-(1-(6-(2-(3-(trifluoromethoxy)phenyl)acetamido)pyridin-3-yl)piperidin-4-yl)-1,3,4-thiadiazol-2-yl)acetamide] | – | – | < 25% | 50 to 75% |
| N#Cc1cccc(CC(=O)Nc2nnc(C3CCN(c4ccc(NC(=O)Cc5cccc(OC(F)(F)F)c5)nc4)CC3)s2)c1 [Example-5, 2-(3-Cyanophenyl)-N-(5-(1-(6-(2-(3-(trifluoromethoxy)phenyl)acetamido)pyridin-3-yl)piperidin-4-yl)-1,3,4-thiadiazol-2-yl)acetamide] | < 25% | 25 to 50% | – | – |
| O=C(Cc1ccccn1)Nc1ccc(N2CCC(c3nnc(NC(=O)Cc4cccc(OC(F)(F)F)c4)s3)CC2)cn1 [Example-6, 2-(Pyridin-2-yl)-N-(5-(4-(5-(2-(3-(trifluoromethoxy)phenyl)acetamido)-1,3,4-thiadiazol-2-yl)piperidin-1-yl)pyridin-2-yl)acetamide] | < 25% | < 25% | – | – |
| O=C(Cc1cccc(OC(F)(F)F)c1)Nc1ccc(N2CCCC(c3nnc(NC(=O)Cc4ccccc4Cl)s3)C2)nn1 (stereo not drawn) [Example-13, 2-(2-Chlorophenyl)-N-(5-(1-(6-(2-(3-(trifluoromethoxy)phenyl)acetamido)pyridazin-3-yl)piperidin-3-yl)-1,3,4-thiadiazol-2-yl)acetamide] | < 25% | 50 to 75% | – | – |
| O=C(Cc1cccnc1)Nc1ccc(N2CCC(c3nnc(NC(=O)Cc4c(F)ccc(F)c4F)s3)CC2)nn1 [Example-19, 2-(Pyridin-3-yl)-N-(6-(4-(5-(2-(2,3,6-trifluorophenyl)acetamido)-1,3,4-thiadiazol-2-yl)piperidin-1-yl)pyridazin-3-yl)acetamide] | 50 to 75% | 75 to 100% | – | – |
| O=C(Cc1ccccn1)Nc1ccc(N2CCC(c3nnc(NC(=O)Cc4c(F)ccc(F)c4F)s3)CC2)nn1 [Example-20, 2-(Pyridin-2-yl)-N-(6-(4-(5-(2-(2,3,6-trifluorophenyl)acetamido)-1,3,4-thiadiazol-2-yl)piperidin-1-yl)pyridazin-3-yl)acetamide] | 25 to 50% | 50 to 75% | – | – |
| O=C(Cc1ccccn1)Nc1ccc(N2CCC(c3nnc(NC(=O)Cc4cccc(F)c4F)s3)CC2)nn1 [Example-21, 2-(2,3-Difluorophenyl)-N-(5-(1-(6-(2-(pyridin-2-yl)acetamido)pyridazin-3-yl)piperidin-4-yl)-1,3,4-thiadiazol-2-yl)acetamide] | 50 to 75% | 75 to 100% | – | – |
| O=C(Cc1ccccn1)Nc1ccc(N2CCC(c3nnc(NC(=O)Cc4ccc(F)c(F)c4)s3)CC2)nn1 [Example-22, 2-(3,4-Difluorophenyl)-N-(5-(1-(6-(2-(pyridin-2-yl)acetamido)pyridazin-3-yl)piperidin-4-yl)-1,3,4-thiadiazol-2-yl)acetamide] | 50 to 75% | 75 to 100% | – | – |
| O=C(Cc1ccccn1)Nc1ccc(N2CCC(c3nnc(NC(=O)Cc4ccccc4F)s3)CC2)nn1 [Example-23, 2-(2-Fluorophenyl)-N-(5-(1-(6-(2-(pyridin-2-yl)acetamido)pyridazin-3-yl)piperidin-4-yl)-1,3,4-thiadiazol-2-yl)acetamide] | 50 to 75% | 75 to 100% | – | – |
| O=C(Cc1ccccn1)Nc1ccc(N2CCC(c3nnc(NC(=O)Cc4cccc(F)c4)s3)CC2)nn1 [Example-24, 2-(3-Fluorophenyl)-N-(5-(1-(6-(2-(pyridin-2-yl)acetamido)pyridazin-3-yl)piperidin-4-yl)-1,3,4-thiadiazol-2-yl)acetamide] | 50 to 75% | 75 to 100% | – | – |
| O=C(Cc1ccccn1)Nc1ccc(N2CCC(c3nnc(NC(=O)Cc4ccc(F)cc4)s3)CC2)nn1 [Example-25, 2-(4-Fluorophenyl)-N-(5-(1-(6-(2-(pyridin-2-yl)acetamido)pyridazin-3-yl)piperidin-4-yl)-1,3,4-thiadiazol-2-yl)acetamide] | 50 to 75% | 75 to 100% | – | – |
| COc1ccccc1CC(=O)Nc1nnc(C2CCN(c3ccc(NC(=O)Cc4ccccn4)nn3)CC2)s1 [Example-26, 2-(2-Methoxyphenyl)-N-(5-(1-(6-(2-(pyridin-2-yl)acetamido)pyridazin-3-yl)piperidin-4-yl)-1,3,4-thiadiazol-2-yl)acetamide] | 50 to 75% | 75 to 100% | – | – |

The remaining lines, values ahead:

| inhibition at 0.1 µM (0.1 μM, mice brain homogenate) | inhibition at 1 µM (1 μM, mice brain homogenate) | inhibition at 0.1 µM | inhibition at 1 µM | SMILES |
| --- | --- | --- | --- | --- |
| 50 to 75% | 75 to 100% | – | – | O=C(Cc1ccccn1)Nc1ccc(N2CCC(c3nnc(NC(=O)Cc4ccccc4Cl)s3)CC2)nn1 [Example-27, 2-(2-Chlorophenyl)-N-(5-(1-(6-(2-(pyridin-2-yl)acetamido)pyridazin-3-yl)piperidin-4-yl)-1,3,4-thiadiazol-2-yl)acetamide] |
| 50 to 75% | 50 to 75% | – | – | O=C(Cc1ccccn1)Nc1ccc(N2CCC(c3nnc(NC(=O)Cc4cc(Cl)ccc4C(F)(F)F)s3)CC2)nn1 [Example-28, 2-(5-Chloro-2-(trifluoromethyl)phenyl)-N-(5-(1-(6-(2-(pyridin-2-yl)acetamido)pyridazin-3-yl)piperidin-4-yl)-1,3,4-thiadiazol-2-yl)acetamide] |
| 50 to 75% | 75 to 100% | – | – | O=C(Cc1ccccn1)Nc1ccc(N2CCC(c3nnc(NC(=O)Cc4ccc(Cl)cc4)s3)CC2)nn1 [Example-29, 2-(4-Chlorophenyl)-N-(5-(1-(6-(2-(pyridin-2-yl)acetamido)pyridazin-3-yl)piperidin-4-yl)-1,3,4-thiadiazol-2-yl)acetamide] |
| 50 to 75% | 75 to 100% | – | – | O=C(Cc1cccc(OC(F)(F)F)c1)Nc1ccc(N2CCC(c3nnc(NC(=O)Cc4ccc5ncccc5c4)s3)CC2)nn1 [Example-30, 2-(Quinolin-6-yl)-N-(5-(1-(6-(2-(3-(trifluoromethoxy)phenyl)acetamido)pyridazin-3-yl)piperidin-4-yl)-1,3,4-thiadiazol-2-yl)acetamide] |
| 25 to 50% | 50 to 75% | – | – | Cc1ccccc1CC(=O)Nc1nnc(C2CCN(c3ccc(NC(=O)Cc4cccc(OC(F)(F)F)c4)nn3)CC2)s1 [Example-31, 2-o-Tolyl-N-(5-(1-(6-(2-(3-(trifluoromethoxy)phenyl)acetamido)pyridazin-3-yl)piperidin-4-yl)-1,3,4-thiadiazol-2-yl)acetamide] |
| 25 to 50% | 50 to 75% | – | – | O=C(Cc1cccc(OC(F)(F)F)c1)Nc1ccc(N2CCC(c3nnc(NC(=O)Cc4c[nH]c5ccccc45)s3)CC2)nn1 [Example-32, N-(6-(4-(5-(2-(1H-indol-3-yl)acetamido)-1,3,4-thiadiazol-2-yl)piperidin-1-yl)pyridazin-3-yl)-2-(3-(trifluoromethoxy)phenyl)acetamide] |
